Experimental data from patent publication US10675333B2, “Infusion pump” (priority 2016, dated 2020).

Test system: subject with a body weight of 51.5 kg
Test: GnRH stimulation test (LH and FSH levels)
Assay type: in vivo, human
Experimental: In the test, a subject with a body weight of 51.5 kg was included, and their luteinizing hormone (LH) and follicle-stimulating hormone (FSH) levels were measured as test indicators both in mIU/mL.

“GnRH: stimulating agent of the GnRH stimulation test; not further described (QHWSYGLRPG; Gonadoliberin-1; UniProt P01148 24-33, looked up)” showed an FSH (0 min (reference time)) of 3.49 mIU/mL, an LH (0 min (reference time)) of 0.99 mIU/mL and an FSH (25 min) of 4.47 mIU/mL. For the same substance, the LH (25 min) was 3.2 mIU/mL, the FSH (45 min) was 5.44 mIU/mL and the LH (45 min) was 3.76 mIU/mL. For the same substance, the FSH (90 min) was 6.21 mIU/mL, the LH (90 min) was 3.76 mIU/mL and the FSH (180 min) was 6.12 mIU/mL. It also gave an LH (180 min) of 2.46 mIU/mL, an FSH maximum level (maximum stimulated level) of 6.21 mIU/mL and an LH maximum level (maximum stimulated level) of 3.76 mIU/mL.
